This assay deals with VEGFR2 (KDR) (Homo sapiens, UniProt P35968). Nature of the assay: ADP-Glo kinase assay with purified KDR (Promega V2681), […] ATP. It is filed as biochemical. Background: ADP-Glo turns the ADP formed in a reaction into a luminescent signal.

SMILES strings stand for the structures.

Chain of VEGFR2 (KDR) (P35968 20-1356): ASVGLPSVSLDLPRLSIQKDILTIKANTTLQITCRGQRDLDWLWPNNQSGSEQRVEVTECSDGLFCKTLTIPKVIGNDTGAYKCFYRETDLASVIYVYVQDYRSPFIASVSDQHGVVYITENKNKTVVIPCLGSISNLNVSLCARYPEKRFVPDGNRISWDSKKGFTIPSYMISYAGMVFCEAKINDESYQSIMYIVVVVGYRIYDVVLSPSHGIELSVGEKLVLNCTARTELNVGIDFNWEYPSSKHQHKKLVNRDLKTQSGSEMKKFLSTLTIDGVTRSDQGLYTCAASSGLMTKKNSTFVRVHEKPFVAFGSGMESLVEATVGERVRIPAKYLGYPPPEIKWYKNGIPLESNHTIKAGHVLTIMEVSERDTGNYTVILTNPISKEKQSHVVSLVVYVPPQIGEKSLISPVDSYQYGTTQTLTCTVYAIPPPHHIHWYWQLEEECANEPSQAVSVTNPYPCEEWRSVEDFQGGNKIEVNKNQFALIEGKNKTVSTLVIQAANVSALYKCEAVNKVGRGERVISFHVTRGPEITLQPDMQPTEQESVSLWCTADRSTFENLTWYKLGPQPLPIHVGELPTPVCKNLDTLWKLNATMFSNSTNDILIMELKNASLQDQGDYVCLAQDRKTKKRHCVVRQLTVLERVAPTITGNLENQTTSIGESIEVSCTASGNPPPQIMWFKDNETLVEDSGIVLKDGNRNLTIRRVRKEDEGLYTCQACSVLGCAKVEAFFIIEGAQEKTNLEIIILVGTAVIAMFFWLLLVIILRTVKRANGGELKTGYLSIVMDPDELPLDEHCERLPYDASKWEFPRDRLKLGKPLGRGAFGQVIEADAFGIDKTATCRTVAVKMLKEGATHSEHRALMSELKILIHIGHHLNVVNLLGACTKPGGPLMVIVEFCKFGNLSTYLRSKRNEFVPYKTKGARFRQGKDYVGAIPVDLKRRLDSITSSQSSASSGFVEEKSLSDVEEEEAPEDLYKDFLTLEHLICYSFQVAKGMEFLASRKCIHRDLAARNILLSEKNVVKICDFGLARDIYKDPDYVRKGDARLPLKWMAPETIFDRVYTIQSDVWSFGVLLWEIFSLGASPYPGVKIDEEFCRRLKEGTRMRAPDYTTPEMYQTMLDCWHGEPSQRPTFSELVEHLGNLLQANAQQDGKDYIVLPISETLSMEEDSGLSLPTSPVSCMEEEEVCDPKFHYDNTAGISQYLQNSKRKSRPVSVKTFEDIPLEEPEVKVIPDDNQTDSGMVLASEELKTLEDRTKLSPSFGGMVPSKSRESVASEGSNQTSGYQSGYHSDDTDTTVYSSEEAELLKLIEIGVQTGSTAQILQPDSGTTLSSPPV

As a reminder, the IC50 is the concentration at which inhibition is half-maximal. Low readings indicate greater potency in that assay, high ones weaker potency in that assay. In the case of `C[C@H]1[C@H](C)CC[C@]2(C(=O)O)CC[C@]3(C)C(=CC[C@@H]4[C@@]5(C)C[C@@H](O)[C@H](O)C(C)(C)[C@@H]5CC[C@]43C)[C@H]12` [CA, corosolic acid], half-maximal inhibition (IC50) was put at 0.95 µM.

For the origin of these results see publication PMC4433267, “Corosolic Acid Inhibits Hepatocellular Carcinoma Cell Migration by Targeting the VEGFR2/Src/FAK Pathway” (PLoS ONE, 2015).
